Reference: patent publication USRE49850E1, “N-(pyridin-2-yl)-4-(thiazol-5-yl)pyrimidin-2-amine derivatives as therapeutic compounds” (AUCENTRA THERAPEUTICS PTY LTD, priority 2015, dated 2024)

Assays:
[1] = system: MV4-11; assay: Cell viability assay (resazurin, leukemia cell line) MV4-11; assay type: cell-based, human; details: Homo sapiens, MV4-11, 72 h; read-out: Anti-proliferative activity GI50 MV4-11
Description: (§1) Compounds from Example 1 were subjected to a standard MTT (3-(4,5-dimethylthiazol-2-yl)-2,5-diphenyltetrazolium bromide) and resazurin assays on solid tumour cell lines and leukemia cell lines, respectively, as previously reported (Wang S et al., J Med Chem 47:1662-1675, 2004 and Diab S. et al. CheMedChem 9:962-972, 2014).

[2] = system: MDA-MB-453; assay: Cell viability assay (MTT, solid tumour cell line) MDA-MB-453; assay type: cell-based, human; details: Homo sapiens, MDA-MB-453, 72 h; read-out: Anti-proliferative activity GI50 MDA-MB-453
Description: as §1

[3] = molecular target: CDK1B (Homo sapiens, UniProt P06493); assay: Kinase assay CDK1B (radiometric profiling service); assay type: biochemical; details: apparent Ki calculated from Km (ATP) and IC50; read-out: CDK inhibition Ki CDK1B
Chain of CDK1B (P06493 whole entry): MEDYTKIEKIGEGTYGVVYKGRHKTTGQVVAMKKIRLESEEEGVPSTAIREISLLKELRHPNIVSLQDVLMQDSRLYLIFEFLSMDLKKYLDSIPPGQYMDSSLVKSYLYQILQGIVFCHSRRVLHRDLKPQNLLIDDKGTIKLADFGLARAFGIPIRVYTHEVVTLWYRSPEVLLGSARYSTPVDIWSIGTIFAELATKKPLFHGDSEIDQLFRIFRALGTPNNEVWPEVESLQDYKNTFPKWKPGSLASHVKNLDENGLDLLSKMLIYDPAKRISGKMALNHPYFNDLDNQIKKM
Chain of CDK1B (P14635 whole entry partner): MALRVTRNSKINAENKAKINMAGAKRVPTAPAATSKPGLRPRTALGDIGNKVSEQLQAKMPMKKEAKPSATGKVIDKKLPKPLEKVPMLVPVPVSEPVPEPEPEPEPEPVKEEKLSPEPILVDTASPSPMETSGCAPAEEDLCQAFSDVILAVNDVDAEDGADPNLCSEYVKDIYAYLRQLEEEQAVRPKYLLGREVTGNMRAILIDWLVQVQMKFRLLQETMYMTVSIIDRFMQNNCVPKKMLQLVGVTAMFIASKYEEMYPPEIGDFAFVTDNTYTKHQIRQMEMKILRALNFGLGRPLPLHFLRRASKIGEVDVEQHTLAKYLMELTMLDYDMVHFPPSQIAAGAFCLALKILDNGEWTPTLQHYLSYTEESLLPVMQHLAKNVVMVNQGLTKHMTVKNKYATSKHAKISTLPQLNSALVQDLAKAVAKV
Experimental: (§2) Eurofins Pharma Discovery or Reaction Biology Corporation Kinase Profiler services were used to measure inhibition of CDKs and other kinases by radiometric assay. Inhibition of CDK4/D1, CDK6/D3 and CDK9/T1 were also determined in-house using ADP Glo Kinase assays (Promega Corporation, Madison, USA). Briefly, the kinase reaction for CDK4/D1 and CDK6/D3 was performed with kinase reaction buffer ([…] Tris base pH 7.5, 20 mM MgCl2, 0.4 mM DTT), 0.1 mg/ml BSA and RB-CTF substrate (retinoblastoma protein1 C-terminal fraction). For CDK9/CyclinT1, the kinase reaction was performed with standard assay buffer and Kinase Dilution Buffer and RBER-IRStide substrate. Serial dilutions of 1:3 were prepared for test compounds for 10 concentrations (from 10 μM to 0.5 nM). The kinase reactions were started by addition of ATP, incubated for 40 min at 37° C. and then stopped by adding 10 μL of ADP Glo reagent. After incubation at room temperature in the dark for 40 min, 20 μL of kinase detection reagent was added per well and incubated for 40 min. Luminescence was measured using an EnVision Multilabel plate reader (PerkinElmer, Buckinghamshire, UK). Positive and negative controls were perfonned in the presence and absence of CDK kinases, respectively. Half-maximal inhibition (IC50) values were calculated using a 4-parameter logistic non-linear regression model with Graphpad prism (Version 6.0). Apparent inhibition constants (Ki) values were calculated from Km (ATP) and IC50 values for the respective kinases.

[4] = molecular target: CDK 2A (Homo sapiens, UniProt P24941); assay: Kinase assay CDK2A (radiometric profiling service); assay type: biochemical; details: apparent Ki calculated from Km (ATP) and IC50; read-out: CDK inhibition Ki CDK 2A
Experimental: as §2

[5] = molecular target: T1, CDK4D1 (Homo sapiens, UniProt P11802); assay: Kinase assay CDK4/D1 (radiometric or ADP Glo); assay type: biochemical; details: apparent Ki calculated from Km (ATP) and IC50; read-out: CDK inhibition Ki CDK4D1
T1 construct: purchased Eurofins Pharma Discovery or Reaction Biology Corporation (service)
T1 sequence (P11802 whole entry): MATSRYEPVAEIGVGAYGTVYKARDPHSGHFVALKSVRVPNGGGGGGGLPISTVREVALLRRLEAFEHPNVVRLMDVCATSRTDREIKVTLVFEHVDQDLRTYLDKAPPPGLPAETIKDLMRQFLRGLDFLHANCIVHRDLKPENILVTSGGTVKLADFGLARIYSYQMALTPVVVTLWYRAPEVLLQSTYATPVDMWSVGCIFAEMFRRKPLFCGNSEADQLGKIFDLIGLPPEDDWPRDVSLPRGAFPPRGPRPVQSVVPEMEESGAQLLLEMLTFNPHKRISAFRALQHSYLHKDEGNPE
T1 sequence (P24385 whole entry partner): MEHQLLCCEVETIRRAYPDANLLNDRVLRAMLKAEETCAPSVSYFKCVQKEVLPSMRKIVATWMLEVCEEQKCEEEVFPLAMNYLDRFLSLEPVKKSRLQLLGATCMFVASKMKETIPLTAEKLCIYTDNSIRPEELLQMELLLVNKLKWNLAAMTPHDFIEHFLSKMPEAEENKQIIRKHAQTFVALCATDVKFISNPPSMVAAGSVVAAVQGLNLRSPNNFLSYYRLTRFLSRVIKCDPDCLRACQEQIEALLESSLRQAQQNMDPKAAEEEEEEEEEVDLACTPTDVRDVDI
Experimental: as §2

[6] = molecular target: T2, CDK6D3 (Homo sapiens, UniProt Q00534); assay: Kinase assay CDK6/D3 (radiometric or ADP Glo); assay type: biochemical; details: apparent Ki calculated from Km (ATP) and IC50; read-out: CDK inhibition Ki CDK6D3
T2 construct: purchased Eurofins Pharma Discovery or Reaction Biology Corporation (service)
T2 sequence (Q00534 whole entry): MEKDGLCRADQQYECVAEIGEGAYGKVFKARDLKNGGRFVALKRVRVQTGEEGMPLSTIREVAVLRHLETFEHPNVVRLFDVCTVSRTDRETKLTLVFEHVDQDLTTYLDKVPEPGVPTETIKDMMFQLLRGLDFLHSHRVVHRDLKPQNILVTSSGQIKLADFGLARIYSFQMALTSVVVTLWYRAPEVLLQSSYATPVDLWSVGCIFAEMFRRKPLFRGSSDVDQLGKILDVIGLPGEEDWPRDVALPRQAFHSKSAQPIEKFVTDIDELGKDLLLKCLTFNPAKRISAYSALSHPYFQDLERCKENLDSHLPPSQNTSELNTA
T2 sequence (P30281 whole entry partner): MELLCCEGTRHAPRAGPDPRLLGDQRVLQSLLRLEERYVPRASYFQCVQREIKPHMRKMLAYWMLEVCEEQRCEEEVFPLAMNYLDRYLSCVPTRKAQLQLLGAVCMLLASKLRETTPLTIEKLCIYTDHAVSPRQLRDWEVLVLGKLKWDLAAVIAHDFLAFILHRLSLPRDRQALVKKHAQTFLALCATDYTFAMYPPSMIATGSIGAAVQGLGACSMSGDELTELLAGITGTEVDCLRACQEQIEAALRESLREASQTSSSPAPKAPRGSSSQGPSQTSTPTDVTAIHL
Experimental: as §2

[7] = molecular target: T3, CDK9T1 (Homo sapiens, UniProt P50750); assay: Kinase assay CDK9/T1 (radiometric or ADP Glo); assay type: biochemical; details: apparent Ki calculated from Km (ATP) and IC50; read-out: CDK inhibition Ki CDK9T1
T3 construct: purchased Eurofins Pharma Discovery or Reaction Biology Corporation (service)
T3 sequence (P50750 whole entry): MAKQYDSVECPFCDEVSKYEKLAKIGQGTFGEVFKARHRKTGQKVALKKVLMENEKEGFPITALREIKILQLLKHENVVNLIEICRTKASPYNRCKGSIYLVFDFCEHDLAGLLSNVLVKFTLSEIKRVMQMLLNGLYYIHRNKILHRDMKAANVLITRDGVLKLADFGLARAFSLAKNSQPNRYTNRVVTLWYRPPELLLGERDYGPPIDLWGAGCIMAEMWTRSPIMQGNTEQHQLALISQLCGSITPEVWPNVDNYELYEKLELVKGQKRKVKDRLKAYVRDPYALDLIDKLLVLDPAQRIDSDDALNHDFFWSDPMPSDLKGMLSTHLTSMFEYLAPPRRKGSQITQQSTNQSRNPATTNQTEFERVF
T3 sequence (O60563 whole entry partner): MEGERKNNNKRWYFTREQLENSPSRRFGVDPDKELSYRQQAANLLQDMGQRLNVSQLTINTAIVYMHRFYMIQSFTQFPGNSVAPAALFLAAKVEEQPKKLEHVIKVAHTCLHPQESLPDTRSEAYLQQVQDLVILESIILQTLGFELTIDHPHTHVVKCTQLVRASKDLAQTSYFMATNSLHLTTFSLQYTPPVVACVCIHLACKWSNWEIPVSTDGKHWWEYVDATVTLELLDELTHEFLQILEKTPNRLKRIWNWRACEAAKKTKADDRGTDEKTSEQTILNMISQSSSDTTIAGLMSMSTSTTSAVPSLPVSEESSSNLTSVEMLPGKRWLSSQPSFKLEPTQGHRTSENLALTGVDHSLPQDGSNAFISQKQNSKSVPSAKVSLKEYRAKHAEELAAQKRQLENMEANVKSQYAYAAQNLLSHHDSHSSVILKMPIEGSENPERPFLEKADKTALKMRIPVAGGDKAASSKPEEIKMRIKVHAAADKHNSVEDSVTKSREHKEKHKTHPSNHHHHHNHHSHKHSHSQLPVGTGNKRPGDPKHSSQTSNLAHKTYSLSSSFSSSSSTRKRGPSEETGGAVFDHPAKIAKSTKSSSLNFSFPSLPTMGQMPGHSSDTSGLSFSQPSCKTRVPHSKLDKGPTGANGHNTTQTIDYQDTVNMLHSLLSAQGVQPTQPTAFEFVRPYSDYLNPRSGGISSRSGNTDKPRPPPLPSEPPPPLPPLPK
Experimental: as §2

Cc1nc(NC2CCCC2)sc1-c1ccnc(Nc2ccc(N3CCN(S(C)(=O)=O)CC3)cn2)n1 [Compound 77]
GI50 [1]: 176 ± 9 nM | GI50 [2]: 215 ± 52 nM

CC(=O)N1CCN(c2ccc(Nc3nccc(-c4sc(NC(C)C)nc4C)n3)nc2)CC1 [Compound 57, 1-(4-(6-((4-(2-(isopropylamino)-4-methylthiazol-5-yl)pyrimidin-2-yl)amino)pyridin-3-yl)piperazin-1-yl)ethan-1-one]
Ki [3]: 2700 nM | Ki [4]: 200 nM | Ki [5]: 21 nM | Ki [6]: 105 nM | Ki [7]: 3720 nM | GI50 [1]: 2070 ± 321 nM | GI50 [2]: 344 ± 126 nM

Cc1nc(NC2CCCC2)sc1-c1nc(Nc2ccc(N3CCCNCC3)cn2)ncc1F [Compound 81, 5-(2-((5-(1,4-diazepan-1-yl)pyridin-2-yl)amino)-5-fluoropyrimidin-4-yl)-N-cyclopentyl-4-methylthiazol-2-amine]
Ki [3]: > 5000 nM | Ki [4]: 417 nM | Ki [5]: 14 nM | Ki [6]: 10 nM | Ki [7]: 679 nM | GI50 [1]: 29 ± 2 nM | GI50 [2]: 83 ± 9 nM

Cc1nc(NC2CCCC2)sc1-c1ccnc(Nc2ccc(N3CCN(C)CC3)cn2)n1 [Compound 63, N-cyclopentyl-4-methyl-5-(2-((5-(4-methylpiperazin-1-yl)pyridin-2-yl)amino)pyrimidin-4-yl)thiazol-2-amine]
Ki [3]: 2680 nM | Ki [4]: 206 nM | Ki [5]: 2 nM | Ki [6]: 9 nM | Ki [7]: 180 nM | GI50 [1]: 9 nM | GI50 [2]: 130 ± 11 nM

CN1CCN(c2ccc(Nc3nccc(-c4sc(NC5CCCC5)nc4C(F)(F)F)n3)nc2)CC1 [Compound 65, N-cyclopentyl-5-(2-((5-(4-methylpiperazin-1-yl)pyridin-2-yl)amino)pyrimidin-4-yl)-4-(trifluoromethyl)thiazol-2-amine]
Ki [3]: 241 nM | Ki [4]: 22 nM | Ki [5]: 1 nM | Ki [6]: 3 nM | Ki [7]: 831 nM | GI50 [1]: 1 ± 1 nM | GI50 [2]: 420 ± 120 nM

Cc1nc(N(C)C2CCCC2)sc1-c1ccnc(Nc2ccc(N3CCNCC3)cn2)n1 [Compound 85, N-cyclopentyl-N,4-dimethyl-5-(2-((5-(piperazin-1-yl)pyridin-2-yl)amino)pyrimidin-4-yl)thiazol-2-amine]
Ki [3]: 1390 nM | Ki [4]: 174 nM | Ki [5]: 2 nM | Ki [6]: 10 nM | Ki [7]: 1800 nM | GI50 [1]: 285 ± 41 nM | GI50 [2]: 402 ± 6 nM

FC(F)(F)c1nc(NC2CCCC2)sc1-c1ccnc(Nc2ccc(N3CCNCC3)cn2)n1 [Compound 62, N-cyclopentyl-5-(2-((5-(piperazin-1-yl)pyridin-2-yl)amino)pyrimidin-4-yl)-4-(trifluoromethyl)thiazol-2-amine]
Ki [3]: 220 nM | Ki [4]: 22 nM | Ki [5]: 8 nM | Ki [6]: 2 nM | Ki [7]: 258 nM | GI50 [1]: 2 ± 1 nM | GI50 [2]: 81 ± 39 nM

CNc1nc(C)c(-c2nc(Nc3ccccn3)ncc2F)s1 [Compound 54, 5-(5-fluoro-2-(pyridin-2-ylamino)pyrimidin-4-yl)-N,4-dimethylthiazol-2-amine]
Ki [5]: > 5000 nM | GI50 [1]: 2160 ± 431 nM | GI50 [2]: 2940 ± 507 nM

CCN1CCN(Cc2ccc(Nc3nccc(-c4sc(NC5CCCC5)nc4C)n3)nc2)CC1 [Compound 83, N-cyclopentyl-5-(2-((5-((4-ethylpiperazin-1-yl)methyl)pyridin-2-yl)amino)pyrimidin-4-yl)-4-methylthiazol-2-amine]
Ki [3]: > 5000 nM | Ki [7]: 1980 nM | GI50 [1]: 19 ± 3 nM | GI50 [2]: 4 ± 2 nM

CC(=O)N1CCN(c2ccc(Nc3nccc(-c4sc(NC5CCCC5)nc4C)n3)nc2)CC1 [Compound 68, 1-(4-(6-((4-(2-(Cyclopentylamino)-4-methylthiazol-5-yl)pyrimidin-2-yl)amino)pyridin-3-yl)piperazin-1-yl) ethan-1-one]
Ki [3]: 3250 nM | Ki [4]: 776 nM | Ki [5]: 6 nM | Ki [6]: 93 nM | Ki [7]: 286 nM | GI50 [1]: 24 ± 28 nM | GI50 [2]: 591 ± 256 nM

Cc1nc(NC2CCCC2)sc1-c1nc(Nc2ccc(N3CCNCC3)cn2)ncc1F [Compound 61, N-cyclopentyl-5-(5-fluoro-2-((5-(piperazin-1-yl)pyridin-2-yl)amino)pyrimidin-4-yl)-4-methylthiazol-2-amine]
Ki [3]: 2240 nM | Ki [4]: 256 nM | Ki [5]: 3 nM | Ki [6]: 7 nM | Ki [7]: 787 nM | GI50 [1]: 53 ± 4 nM | GI50 [2]: 780 ± 598 nM

O=CN1CCN(c2ccc(Nc3nccc(-c4sc(NC5CCCC5)nc4C(F)(F)F)n3)nc2)CC1 [Compound 79, 4-(6-((4-(2-(cyclopentylamino)-4-(trifluoromethyl)thiazol-5-yl)pyrimidin-2-yl)amino)pyridin-3-yl)piperazine-1-carbaldehyde]
Ki [3]: 345 nM | Ki [4]: 15 nM | Ki [5]: 11 nM | Ki [6]: 7 nM | Ki [7]: > 5000 nM | GI50 [1]: 4 ± 1 nM | GI50 [2]: 336 ± 188 nM

Cc1nc(NC(C)C)sc1-c1ccnc(Nc2ccc(N3CCNCC3)cn2)n1 [Compound 55, N-isopropyl-4-methyl-5-(2-((5-(piperazin-1-yl)pyridin-2-yl)amino)pyrimidin-4-yl)thiazol-2-amine]
Ki [3]: 3140 nM | Ki [4]: 240 nM | Ki [5]: 5 nM | Ki [6]: 11 nM | Ki [7]: 2420 nM | GI50 [1]: 93 ± 10 nM | GI50 [2]: 31 ± 2 nM

CC(=O)N1CCN(c2ccc(Nc3nccc(-c4sc(NC5CCCC5)nc4C(F)(F)F)n3)nc2)CC1 [Compound 70, 1-(4-(6-((4-(2-(cyclopentylamino)-4-(trifluoromethyl)thiazol-5-yl)pyrimidin-2-yl)amino)pyridin-3-yl)piperazin-1-yl)ethan-1-one]
Ki [3]: 297 nM | Ki [4]: 14 nM | Ki [5]: 4 nM | Ki [6]: 6 nM | Ki [7]: > 5000 nM | GI50 [1]: 12 ± 1 nM | GI50 [2]: 77 ± 1 nM

Cc1nc(NC(C)C)sc1-c1ccnc(Nc2ccc(N3CCCNCC3)cn2)n1 [Compound 59, 5-(2-((5-(1,4-diazepan-1-yl)pyridin-2-yl)amino)pyrimidin-4-yl)-N-isopropyl-4-methylthiazol-2-amine]
Ki [3]: > 5000 nM | Ki [4]: 800 nM | Ki [5]: 16 nM | Ki [6]: 28 nM | Ki [7]: 925 nM | GI50 [1]: 255 ± 85 nM | GI50 [2]: 938 ± 68 nM

Cc1nc(NC2CCCC2)sc1-c1ccnc(Nc2ccc(N3CCC(N)CC3)cn2)n1 [Compound 74, 5-(2-((5-(4-aminopiperidin-1-yl)pyridin-2-yl)amino)pyrimidin-4-yl)-N-cyclopentyl-4-methylthiazol-2-amine]
Ki [3]: 1230 nM | Ki [4]: 181 nM | Ki [5]: 3 nM | Ki [6]: 133 nM | Ki [7]: 173 nM | GI50 [1]: 22 ± 2 nM | GI50 [2]: 55 ± 12 nM

CNc1nc(C)c(-c2nc(Nc3ccc(N4CCCCC4)cn3)ncc2F)s1 [Compound 51, 5-(5-fluoro-2-((5-(piperidin-1-yl)pyridin-2-yl)amino)pyrimidin-4-yl)-N,4-dimethylthiazol-2-amine]
Ki [5]: > 5000 nM | GI50 [1]: 606 ± 38 nM | GI50 [2]: 463 ± 75 nM

Cc1nc(Nc2ccccc2)sc1-c1ccnc(Nc2ccc(N3CCNCC3)cn2)n1 [Compound 89, 4-Methyl-N-phenyl-5-(2-((5-(piperazin-1-yl)pyridin-2-yl)amino)pyrimidin-4-yl)thiazol-2-amine]
Ki [3]: 2040 nM | Ki [4]: > 5000 nM | Ki [5]: 5 nM | Ki [6]: 66 nM | Ki [7]: 436 nM | GI50 [1]: 56 ± 11 nM | GI50 [2]: 279 ± 44 nM

Cc1nc(NC2CCCC2)sc1-c1ccnc(Nc2ccc(N3CCCNCC3)cn2)n1 [Compound 76, 5-(2-((5-(1,4-diazepan-1-yl)pyridin-2-yl)amino)pyrimidin-4-yl)-N-cyclopentyl-4-methylthiazol-2-amine]
Ki [3]: 4070 nM | Ki [4]: 278 nM | Ki [5]: 1 nM | Ki [6]: 8 nM | Ki [7]: 508 nM | GI50 [1]: 29 ± 2 nM | GI50 [2]: 102 ± 117 nM

Cc1nc(NC2CCCC2)sc1-c1ccnc(Nc2ccccn2)n1 [Compound 78, N-cyclopentyl-4-methyl-5-(2-(pyridin-2-ylamino)pyrimidin-4-yl)thiazol-2-amine]
Ki [5]: 570 nM | Ki [7]: > 5000 nM | GI50 [1]: 300 ± 35 nM | GI50 [2]: 4380 ± 691 nM
